# Patent US12584904B2, “Methods for monitoring physiological status of a body organ” (BioCrine AB, priority 2012, dated 2026)
# Entries after “also recorded” stand apart in the source; their conditions may differ.
# Columns and labels:
# [1] = system: ob/ob mice; test: Physiological measurements during leptin treatment of ob/ob mice; type: in vivo, mouse
# Description: (§1) Having witnessed the behavior of individual islets in response to food over-consumption and insulin resistance, we next questioned if this growth could be refrained or even reversed by treating the ob/ob mice with leptin. Mice were injected intraperitoneally every day between 3 and 4 months of age. The physiological effects of this treatment were monitored regularly using different parameters.
# Leptin treatment was performed by daily intraperitoneal injections of 1.5 μg/g body weight of recombinant human leptin (Amylin Pharmaceuticals), and sham treatment was performed by intraperitoneal injection of water instead of leptin.
# (§2) Body weight and blood glucose levels were measured in a minimum of 7 mice. Glucose concentrations were obtained using Accu-Chek™ Aviva monitoring system (Roche). Glucose tolerance tests were performed by intraperitoneal injection of 2 mg glucose per gram body weight in mice fasted for 16 hours (n≥5). Plasma insulin concentrations from a minimum of 3 mice per condition were measured using mouse insulin ELISA plates (Mercodia). Leptin treatment was performed by daily intraperitoneal injections of 1.5 μg/g body weight of recombinant human leptin (Amylin Pharmaceuticals), and sham treatment was performed by intraperitoneal injection of water instead of leptin.
# [2] = system: islet grafts in the anterior chamber of the eye of ob/ob mice; test: Longitudinal in vivo confocal imaging of intraocular islet grafts under leptin treatment; set-up: species or system mouse
# Text: (§3) Islet grafts in mice were imaged in vivo at specific time points after transplantation. We used an upright laser scanning confocal microscope based on TCS-SP2-AOBS (Leica) with a long-distance water-dipping objective (Leica HXC-APO 10×/0.30NA), and a custom-built stereotaxic head holder allowing to position the mouse eye containing the engrafted islets towards the objective. Viscotears (Novartis) was used as immersion liquid between the eye and the objective, and isoflurane was used to anesthetize the mice during in vivo imaging. Imaging of islet morphology was done by laser illumination at 633 nm, and collection of backscattered light at the same wavelength.
# Islets were isolated from female donor mice and transplanted into the anterior chamber of the eye of male recipients, using a previously described technique (2). We anesthetized mice using isoflurane (Baxter), and approximately 10-20 islets were transplanted into the anterior chamber of the mouse eye. Islets used for transplantation were selected to be of similar size for each experiment, independent of the mouse genotype. The mice were injected subcutaneously with Temgesic™ (Schering-Plough) for postoperative analgesia.
# as §3, with “transplantation as previously described (2).” for “transplantation.”, “Viscotears™” for “Viscotears”, “wavelength. For visualization of blood vessels we injected 100 μl of a solution containing 2.5 mg/ml of 500 kDa FITC-labeled dextran (Invitrogen) into the tail vein, and imaged fluorescence using 496 nm excitation wavelength. Scanning speed and laser intensities were adjusted to avoid any cellular damage to the mouse eye or islet graft.” for “wavelength.”
# AutoQuant X2 (Media Cybernetics) was used for blind deconvolution of all in vivo confocal images before image analysis. Islet volume was analyzed based on the backscatter signal channel, using Matlab™ and the Image Processing Toolbox (Mathworks). The islet “equatorial volume”, i.e. the volume from the top of the islet down to the calculated equator, was used to represent the volume and calculate islet growth. We analyzed a minimum of 3 islet grafts per animal to determine islet growth, with a minimum of 3 mice per category. Individual vessel segments were identified at different imaging time points and their diameter measured using Volocity™ (Perkin Elmer). We established image analysis protocols in Volocity™ for automated analysis of histological sections. The average beta cell section area was obtained by dividing the insulin-stained area by the total number of DAPI-stained nuclei enclosed in this area (minimum of 1000 cells per tissue). Beta cell proliferation rate was obtained by counting Ki67-positive nuclei and dividing by the total number of DAPI-stained nuclei in insulin-positive cells (minimum of 10000 cells per transplanted eye or pancreas). Volocity™ was used for image display and Photoshop CS5 (Adobe) for image assembly.
# [3] = system: ob/ob mice; test: Intraperitoneal glucose tolerance test after leptin treatment; type: in vivo, mouse
# Description: as §1, §2
# [4] = system: beta cells of ob/ob mouse islets; test: Immunohistochemistry of transplanted eye and pancreas sections after leptin treatment; type: in vivo; conditions: for proliferation of beta cells (insulin and Ki67 staining): end of leptin treatment
# Description: Dissected tissues were briefly rinsed with PBS, fixed for 48 h at room temperature using formalin, and dehydrated and embedded in paraffin. Five-micron thick sections mounted on precoated microscope slides were dewaxed by xylene and progressively rehydrated before processing. Insulin was stained using chicken anti-insulin (1:200 dilution, Abcam) followed by goat anti-chicken Alexa™ 488 (1:1000 dilution, Invitrogen) antibodies; blood vessels were stained using rat anti-mouse CD31 (1:50 dilution, BD Pharmingen), followed by incubation of biotinylated goat anti-rat (5 μg/ml, Vector Labs) and amplification with HRP-streptavidin/Alexa™ 647-tyramide (Invitrogen); proliferation was assessed by using mouse anti-human Ki67 (1:50 dilution, Novocastra) together with M.O.M. biotinylated anti-mouse IgG (Vector Labs), and amplified using HRP-streptavidin/Alexa 647-tyramide. Nuclei were stained and slides were preserved by cover glass mounting using ProLong™ Gold Antifade Reagent with DAPI (Invitrogen). Slides were imaged using a BD Pathway 855 system (BD Biosciences). Insulin, CD31, Ki67 and DAPI stainings were imaged using a 20×/0.75NA UApo/340 Olympus objective, and overviews of pancreatic sections stained by hematoxylin/eosin were obtained by montage capture mode using a 4×/0.16NA UPlan SApo Olympus objective.
# AutoQuant X2 (Media Cybernetics) was used for blind deconvolution of all in vivo confocal images before image analysis. Islet volume was analyzed based on the backscatter signal channel, using Matlab™ and the Image Processing Toolbox (Mathworks). The islet “equatorial volume”, i.e. the volume from the top of the islet down to the calculated equator, was used to represent the volume and calculate islet growth. We analyzed a minimum of 3 islet grafts per animal to determine islet growth, with a minimum of 3 mice per category. Individual vessel segments were identified at different imaging time points and their diameter measured using Volocity™ (Perkin Elmer). We established image analysis protocols in Volocity™ for automated analysis of histological sections. […]
# [5] = daily i.p. leptin 1.5 μg/g, during treatment
substance,measurement,setting,value
"leptin: recombinant human leptin (Amylin Pharmaceuticals), hormone encoded by the ob gene",body weight after the end of the treatment period,"[1]; after end of leptin treatment, mass similar to untreated ob/ob about one month later",rapidly increased
same,body weight,"[1]; daily i.p. leptin 1.5 μg/g between 3 and 4 months of age, during treatment",decrease
same,blood glucose,[1]; [5],decrease
same,insulin concentrations (plasma),[1]; [5],decrease
same,appetite,"[1]; daily i.p. leptin, during treatment",visibly reduced
same,islet growth after the end of treatment,"[2]; ob/ob mice, after end of leptin or sham treatment",no difference in islet growth
same,islet growth (islet volume) of islet transplants,"[2]; ob/ob mice, during leptin treatment versus sham treatment",reversal of islet growth; also recorded: abolished and partially reversed
same,angiogenesis in the islet grafts,"[2]; ob/ob mice, early stage after leptin treatment",could observe angiogenesis
same,vessel diameter in islet grafts,"[2]; ob/ob mice, leptin treatment, dextran-FITC imaging",rapid effect on blood vessel diameters; also recorded: decrease
same,"granulation of islet cells (reflective optical properties, backscatter)",[2]; transplanted islets in leptin-treated ob/ob mice,regranulation
same,"glucose handling in intraperitoneal glucose tolerance test (glucose excursions, AUC)","[3]; ob/ob mice at end of treatment period, 2 mg glucose/g i.p., 16 h fasted",normalized; also recorded: glucose excursions similar to those obtained from age-matched control mice
same,insulin sensitivity,"[3]; ob/ob mice, end of leptin treatment",beneficial impact
same,proliferation of beta cells (insulin and Ki67 staining),[4]; engrafted islets (transplanted eye),attenuated; also recorded: virtually abolished
same,average beta cell size,"[4]; following leptin treatment, transplanted or endogenous pancreatic islets, versus age-matched untreated control mice",no significant difference compared to age-matched untreated control mice
same,proliferation of beta cells (insulin and Ki67 staining),[4]; in situ pancreatic islets,attenuated; also recorded: virtually abolished
